Results published in publication PMC3501554 (Drug and alcohol dependence, 2012).

Tests used:
[1] = following inhalation of 200 mg incinerated marijuana; ref Wilson et al., 2006; cited from earlier work
C57BL/6J mice = assay: Observable effects; format: in vivo; conditions: Rimonabant (3 mg/kg s.c., 10 min before) / 50 mg placebo smoke

SMILES	Brain concentration of THC [1]	Hyperreflexia, percentage of mice showing presence of observable effect (C57BL/6J mice)	Ptosis, percentage of mice showing presence of observable effect (C57BL/6J mice)	Straub Tail, percentage of mice showing presence of observable effect (C57BL/6J mice)
CCCCCc1cc(O)c2c(c1)OC(C)(C)[C@@H]1CCC(C)=C[C@@H]21 [THC, Δ^9-tetrahydrocannabinol]	433 ± 66 ng/g	–	–	–
Cc1c(C(=O)NN2CCCCC2)nn(-c2ccc(Cl)cc2Cl)c1-c1ccc(Cl)cc1 [Rimonabant]	–	0%	0%	0%
